Results: ChEMBL document CHEMBL4507294, “Data for DCP probe MSD-CYP11B2” (2021)

Key:
[1] = target: Vascular endothelial growth factor receptor 3 (Homo sapiens) (UniProt P35916); conditions: Compound concentration 1000.0 nM
[2] = tested on: Epidermal growth factor receptor (Homo sapiens), P00533 [UNDEFINED MUTATION]; conditions: Compound concentration 1000.0 nM
[3] = tested on: Phosphatidylinositol 4,5-bisphosphate 3-kinase catalytic subunit alpha isoform (Homo sapiens), P42336 [E545A]; conditions: Compound concentration 1000.0 nM
[4] = target: Serine/threonine-protein kinase 26 (Homo sapiens) (UniProt Q9P289); conditions: Compound concentration 1000.0 nM
[5] = target: Receptor-type tyrosine-protein kinase FLT3 (Homo sapiens) (UniProt P36888); conditions: Compound concentration 1000.0 nM
[6] = target: Interleukin-1 receptor-associated kinase 4 (Homo sapiens) (UniProt Q9NWZ3); conditions: Compound concentration 1000.0 nM
[7] = tested on: Tyrosine-protein kinase ABL1 (Homo sapiens), P00519 [Q252H]; conditions: Compound concentration 1000.0 nM
[8] = target: GABA-A receptor; anion channel (Rattus norvegicus) (UniProt O09028+P15431+P18506+P18508+P19969+P20236+P23574+P23576+P28471+P28473+P30191+P62813+P63079+P63138+Q91ZM7+Q9ES14); conditions: Compound concentration 10.0 uM
[9] = target: MAP kinase-activated protein kinase 2 (Homo sapiens) (UniProt P49137); conditions: Compound concentration 1000.0 nM
[10] = target: Ribosomal protein S6 kinase alpha-6 (Homo sapiens) (UniProt Q9UK32); conditions: Compound concentration 1000.0 nM
[11] = target: Ribosomal protein S6 kinase alpha-2 (Homo sapiens) (UniProt Q15349); conditions: Compound concentration 1000.0 nM
[12] = tested on: Receptor-type tyrosine-protein kinase FLT3 (Homo sapiens), P36888 [R834Q]; conditions: Compound concentration 1000.0 nM
[13] = target: Serine/threonine-protein kinase tousled-like 2 (Homo sapiens) (UniProt Q86UE8); conditions: Compound concentration 1000.0 nM
[14] = target: Serine/threonine-protein kinase BRSK1 (Homo sapiens) (UniProt Q8TDC3); conditions: Compound concentration 1000.0 nM
[15] = tested on: Hepatocyte growth factor receptor (Homo sapiens), P08581 [Y1235D]; conditions: Compound concentration 1000.0 nM
[16] = target: Protein kinase C delta type (Homo sapiens) (UniProt Q05655); conditions: Compound concentration 1000.0 nM
[17] = target: Serine/threonine-protein kinase PAK 6 (Homo sapiens) (UniProt Q9NQU5); conditions: Compound concentration 1000.0 nM
[18] = target: Dual specificity protein kinase CLK1 (Homo sapiens) (UniProt P49759); conditions: Compound concentration 1000.0 nM
[19] = target: Serine/threonine-protein kinase Nek7 (Homo sapiens) (UniProt Q8TDX7); conditions: Compound concentration 1000.0 nM
[20] = target: Tyrosine-protein kinase Lck (Homo sapiens) (UniProt P06239); conditions: Compound concentration 1000.0 nM
[21] = tested on: Tyrosine-protein kinase ABL1 (Homo sapiens), P00519 [F317L]; conditions: Compound concentration 1000.0 nM
[22] = target: Serine/threonine-protein kinase 35 (Homo sapiens) (UniProt Q8TDR2); conditions: Compound concentration 1000.0 nM
[23] = target: 1-phosphatidylinositol 3-phosphate 5-kinase (Homo sapiens) (UniProt Q9Y2I7); conditions: Compound concentration 1000.0 nM
[24] = target: Beta-2 adrenergic receptor (Homo sapiens) (UniProt P07550); conditions: Compound concentration 10.0 uM
[25] = target: Ribosomal protein S6 kinase alpha-3 (Homo sapiens) (UniProt P51812); conditions: Compound concentration 1000.0 nM
[26] = target: Eukaryotic translation initiation factor 2-alpha kinase 1 (Homo sapiens) (UniProt Q9BQI3); conditions: Compound concentration 1000.0 nM
[27] = target: Megakaryocyte-associated tyrosine-protein kinase (Homo sapiens) (UniProt P42679); conditions: Compound concentration 1000.0 nM
[28] = target: Cytoplasmic tyrosine-protein kinase BMX (Homo sapiens) (UniProt P51813); conditions: Compound concentration 1000.0 nM
[29] = target: Ephrin type-A receptor 2 (Homo sapiens) (UniProt P29317); conditions: Compound concentration 1000.0 nM
[30] = target: Mitogen-activated protein kinase kinase kinase 5 (Homo sapiens) (UniProt Q99683); conditions: Compound concentration 1000.0 nM
[31] = target: Serine/threonine-protein kinase SIK2 (Homo sapiens) (UniProt Q9H0K1); conditions: Compound concentration 1000.0 nM
[32] = target: Dual specificity testis-specific protein kinase 1 (Homo sapiens) (UniProt Q15569); conditions: Compound concentration 1000.0 nM
[33] = target: Phosphatidylinositol 4-kinase beta (Homo sapiens) (UniProt Q9UBF8); conditions: Compound concentration 1000.0 nM
[34] = target: ALK tyrosine kinase receptor (Homo sapiens) (UniProt Q9UM73); conditions: Compound concentration 1000.0 nM
[35] = target: MAP kinase-activated protein kinase 5 (Homo sapiens) (UniProt Q8IW41); conditions: Compound concentration 1000.0 nM
[36] = target: Tyrosine-protein kinase ABL2 (Homo sapiens) (UniProt P42684); conditions: Compound concentration 1000.0 nM
[37] = tested on: Epidermal growth factor receptor (Homo sapiens), P00533 [T790M]; conditions: Compound concentration 1000.0 nM
[38] = target: Serine/threonine-protein kinase 32C (Homo sapiens) (UniProt Q86UX6); conditions: Compound concentration 1000.0 nM
[39] = target: Leukocyte tyrosine kinase receptor (Homo sapiens) (UniProt P29376); conditions: Compound concentration 1000.0 nM
[40] = target: Cyclin-dependent kinase 15 (Homo sapiens) (UniProt Q96Q40); conditions: Compound concentration 1000.0 nM
[41] = target: Serine/threonine-protein kinase PLK2 (Homo sapiens) (UniProt Q9NYY3); conditions: Compound concentration 1000.0 nM
[42] = target: Rho-associated protein kinase 1 (Homo sapiens) (UniProt Q13464); conditions: Compound concentration 1000.0 nM
[43] = target: Serine/threonine-protein kinase PAK 5 (Homo sapiens) (UniProt Q9P286); conditions: Compound concentration 1000.0 nM
[44] = target: Tyrosine-protein kinase Yes (Homo sapiens) (UniProt P07947); conditions: Compound concentration 1000.0 nM

Sequence of 1-phosphatidylinositol 3-phosphate 5-kinase (Homo sapiens) (Q9Y2I7 whole entry): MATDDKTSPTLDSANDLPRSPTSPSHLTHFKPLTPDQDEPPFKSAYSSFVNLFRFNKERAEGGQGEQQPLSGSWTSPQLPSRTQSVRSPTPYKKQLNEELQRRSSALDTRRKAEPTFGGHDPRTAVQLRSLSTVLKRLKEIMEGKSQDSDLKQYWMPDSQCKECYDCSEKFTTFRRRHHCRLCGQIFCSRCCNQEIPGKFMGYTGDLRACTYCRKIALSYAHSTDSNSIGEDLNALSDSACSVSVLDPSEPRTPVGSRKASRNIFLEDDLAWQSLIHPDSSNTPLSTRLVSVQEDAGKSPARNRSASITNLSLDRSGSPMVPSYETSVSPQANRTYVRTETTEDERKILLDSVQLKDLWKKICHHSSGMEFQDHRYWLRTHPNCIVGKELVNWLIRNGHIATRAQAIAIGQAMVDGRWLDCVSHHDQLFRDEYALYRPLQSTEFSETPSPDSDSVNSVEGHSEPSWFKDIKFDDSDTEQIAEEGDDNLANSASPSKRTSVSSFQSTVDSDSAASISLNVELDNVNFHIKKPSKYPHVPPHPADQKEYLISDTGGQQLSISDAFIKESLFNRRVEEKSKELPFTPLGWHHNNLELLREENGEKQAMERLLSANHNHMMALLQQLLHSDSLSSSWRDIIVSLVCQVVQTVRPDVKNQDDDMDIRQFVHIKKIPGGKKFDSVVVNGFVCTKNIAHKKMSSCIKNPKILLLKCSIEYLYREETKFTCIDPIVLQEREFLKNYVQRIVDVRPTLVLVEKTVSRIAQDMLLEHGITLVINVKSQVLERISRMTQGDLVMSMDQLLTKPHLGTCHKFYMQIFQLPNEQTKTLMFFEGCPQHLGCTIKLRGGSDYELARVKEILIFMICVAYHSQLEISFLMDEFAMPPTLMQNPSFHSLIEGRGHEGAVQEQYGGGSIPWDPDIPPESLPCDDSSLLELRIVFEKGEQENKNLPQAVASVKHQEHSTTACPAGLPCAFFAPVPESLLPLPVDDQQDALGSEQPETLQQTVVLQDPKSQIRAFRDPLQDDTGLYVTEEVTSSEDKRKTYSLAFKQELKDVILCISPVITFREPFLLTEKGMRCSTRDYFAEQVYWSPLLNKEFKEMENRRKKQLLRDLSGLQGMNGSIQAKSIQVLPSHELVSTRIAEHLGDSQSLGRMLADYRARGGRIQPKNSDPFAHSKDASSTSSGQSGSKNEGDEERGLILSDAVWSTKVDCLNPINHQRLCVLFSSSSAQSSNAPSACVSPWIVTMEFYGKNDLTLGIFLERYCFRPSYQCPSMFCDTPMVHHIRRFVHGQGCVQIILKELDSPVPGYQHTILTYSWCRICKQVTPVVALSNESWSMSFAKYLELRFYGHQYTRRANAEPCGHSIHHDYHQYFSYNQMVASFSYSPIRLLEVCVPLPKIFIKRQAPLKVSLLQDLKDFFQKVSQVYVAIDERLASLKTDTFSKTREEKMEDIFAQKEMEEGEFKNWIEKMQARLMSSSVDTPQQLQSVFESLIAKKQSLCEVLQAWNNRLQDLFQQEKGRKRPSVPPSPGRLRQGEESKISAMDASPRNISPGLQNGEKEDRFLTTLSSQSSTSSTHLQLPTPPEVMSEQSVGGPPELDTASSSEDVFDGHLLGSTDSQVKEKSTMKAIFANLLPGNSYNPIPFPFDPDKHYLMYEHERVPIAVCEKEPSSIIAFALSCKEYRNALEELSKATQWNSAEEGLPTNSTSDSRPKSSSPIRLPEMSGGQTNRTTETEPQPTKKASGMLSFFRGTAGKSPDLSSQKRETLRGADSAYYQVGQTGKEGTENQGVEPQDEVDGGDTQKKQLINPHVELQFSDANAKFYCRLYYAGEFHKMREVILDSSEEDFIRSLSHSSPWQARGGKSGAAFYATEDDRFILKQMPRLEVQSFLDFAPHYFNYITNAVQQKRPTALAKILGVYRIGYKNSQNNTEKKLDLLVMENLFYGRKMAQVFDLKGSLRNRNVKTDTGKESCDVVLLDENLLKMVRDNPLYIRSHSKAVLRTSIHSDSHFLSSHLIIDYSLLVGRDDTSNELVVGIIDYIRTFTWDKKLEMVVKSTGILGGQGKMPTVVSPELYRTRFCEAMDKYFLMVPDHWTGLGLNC
Sequence of Serine/threonine-protein kinase 35 (Homo sapiens) (Q8TDR2 whole entry): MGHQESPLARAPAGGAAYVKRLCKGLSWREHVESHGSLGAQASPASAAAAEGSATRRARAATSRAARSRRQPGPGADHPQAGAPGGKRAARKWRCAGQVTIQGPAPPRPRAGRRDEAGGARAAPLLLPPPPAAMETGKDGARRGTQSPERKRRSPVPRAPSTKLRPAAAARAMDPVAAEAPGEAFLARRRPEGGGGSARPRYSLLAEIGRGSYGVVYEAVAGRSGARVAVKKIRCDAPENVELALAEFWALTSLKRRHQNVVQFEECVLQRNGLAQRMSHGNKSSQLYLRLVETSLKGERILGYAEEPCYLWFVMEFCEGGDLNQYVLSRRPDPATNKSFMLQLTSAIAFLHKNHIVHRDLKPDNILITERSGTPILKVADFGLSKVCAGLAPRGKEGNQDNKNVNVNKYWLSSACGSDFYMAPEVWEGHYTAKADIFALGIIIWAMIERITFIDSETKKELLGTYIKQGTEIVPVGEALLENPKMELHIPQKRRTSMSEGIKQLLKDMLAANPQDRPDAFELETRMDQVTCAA
Sequence of Serine/threonine-protein kinase PAK 5 (Homo sapiens) (Q9P286 whole entry, looked up): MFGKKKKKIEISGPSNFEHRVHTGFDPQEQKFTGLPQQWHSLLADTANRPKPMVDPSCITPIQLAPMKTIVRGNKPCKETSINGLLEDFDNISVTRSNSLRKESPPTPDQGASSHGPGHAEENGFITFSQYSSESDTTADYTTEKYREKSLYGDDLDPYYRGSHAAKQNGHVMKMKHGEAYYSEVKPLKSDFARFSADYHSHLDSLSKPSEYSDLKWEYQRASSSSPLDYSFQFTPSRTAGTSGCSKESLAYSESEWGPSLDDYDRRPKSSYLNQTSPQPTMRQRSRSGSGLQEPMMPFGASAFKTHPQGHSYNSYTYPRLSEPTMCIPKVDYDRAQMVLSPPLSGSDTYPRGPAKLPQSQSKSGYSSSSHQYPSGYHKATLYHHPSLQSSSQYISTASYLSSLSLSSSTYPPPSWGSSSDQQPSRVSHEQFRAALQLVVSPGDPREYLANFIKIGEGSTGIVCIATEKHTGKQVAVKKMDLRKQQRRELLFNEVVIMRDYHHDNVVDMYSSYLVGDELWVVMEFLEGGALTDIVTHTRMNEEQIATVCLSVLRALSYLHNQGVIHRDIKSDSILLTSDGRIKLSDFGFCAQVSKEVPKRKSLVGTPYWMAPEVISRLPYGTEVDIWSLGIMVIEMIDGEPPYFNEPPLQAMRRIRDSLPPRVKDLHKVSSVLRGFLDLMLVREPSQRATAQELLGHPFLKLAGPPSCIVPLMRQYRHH
Sequence of Serine/threonine-protein kinase SIK2 (Homo sapiens) (Q9H0K1 whole entry, looked up): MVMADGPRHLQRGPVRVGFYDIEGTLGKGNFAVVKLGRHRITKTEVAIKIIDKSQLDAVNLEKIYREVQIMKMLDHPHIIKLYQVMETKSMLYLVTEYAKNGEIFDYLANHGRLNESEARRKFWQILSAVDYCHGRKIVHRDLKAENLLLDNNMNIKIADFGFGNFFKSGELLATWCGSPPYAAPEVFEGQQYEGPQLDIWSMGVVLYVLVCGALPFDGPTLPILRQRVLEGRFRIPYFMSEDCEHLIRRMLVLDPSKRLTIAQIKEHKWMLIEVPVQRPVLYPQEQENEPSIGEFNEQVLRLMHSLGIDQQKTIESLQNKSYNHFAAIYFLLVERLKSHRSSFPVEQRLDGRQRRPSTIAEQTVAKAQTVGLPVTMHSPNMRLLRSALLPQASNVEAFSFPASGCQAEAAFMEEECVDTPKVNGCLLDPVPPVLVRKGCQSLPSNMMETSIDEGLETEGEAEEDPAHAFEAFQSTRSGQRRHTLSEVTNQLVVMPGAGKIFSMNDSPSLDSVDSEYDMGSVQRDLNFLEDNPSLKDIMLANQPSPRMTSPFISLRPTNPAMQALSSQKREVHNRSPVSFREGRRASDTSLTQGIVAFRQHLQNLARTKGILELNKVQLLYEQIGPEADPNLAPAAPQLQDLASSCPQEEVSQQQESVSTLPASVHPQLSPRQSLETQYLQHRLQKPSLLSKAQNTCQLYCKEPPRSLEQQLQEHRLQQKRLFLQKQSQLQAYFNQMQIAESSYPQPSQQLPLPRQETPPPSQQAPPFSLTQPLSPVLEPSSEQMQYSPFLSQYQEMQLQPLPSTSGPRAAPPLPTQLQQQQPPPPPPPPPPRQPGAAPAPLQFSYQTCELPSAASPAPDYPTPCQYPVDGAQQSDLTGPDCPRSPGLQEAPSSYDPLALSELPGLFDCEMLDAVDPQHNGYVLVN
Sequence of MAP kinase-activated protein kinase 2 (Homo sapiens) (P49137 whole entry, looked up): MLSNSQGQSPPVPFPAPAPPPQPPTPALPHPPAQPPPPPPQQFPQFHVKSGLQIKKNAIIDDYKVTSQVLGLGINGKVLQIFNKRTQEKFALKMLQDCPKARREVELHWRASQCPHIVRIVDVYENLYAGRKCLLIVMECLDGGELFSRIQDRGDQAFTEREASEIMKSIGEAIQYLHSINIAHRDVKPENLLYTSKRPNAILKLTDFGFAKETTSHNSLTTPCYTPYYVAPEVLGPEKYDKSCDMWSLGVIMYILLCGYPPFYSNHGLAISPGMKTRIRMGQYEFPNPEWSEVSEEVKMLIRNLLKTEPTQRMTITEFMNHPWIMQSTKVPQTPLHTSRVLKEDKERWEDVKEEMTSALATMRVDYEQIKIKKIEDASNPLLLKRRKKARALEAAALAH
Sequence of Beta-2 adrenergic receptor (Homo sapiens) (P07550 whole entry, looked up): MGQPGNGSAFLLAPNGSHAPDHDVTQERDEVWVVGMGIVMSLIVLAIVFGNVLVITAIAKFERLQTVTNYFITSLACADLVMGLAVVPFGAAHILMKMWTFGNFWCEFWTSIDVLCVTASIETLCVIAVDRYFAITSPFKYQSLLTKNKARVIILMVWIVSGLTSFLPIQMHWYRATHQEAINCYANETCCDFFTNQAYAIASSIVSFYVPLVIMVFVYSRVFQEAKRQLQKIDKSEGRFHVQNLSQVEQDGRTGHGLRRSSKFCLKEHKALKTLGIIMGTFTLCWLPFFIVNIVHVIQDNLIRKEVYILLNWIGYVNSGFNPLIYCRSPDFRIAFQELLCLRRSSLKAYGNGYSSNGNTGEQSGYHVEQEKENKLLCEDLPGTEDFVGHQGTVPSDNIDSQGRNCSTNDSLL

FC(F)(F)c1ccc2c(c1)nc(-c1cccnc1)n2C1CC1 [MSD-CYP11B2-Negative-control]
inactive: residual activity [1] 91% | residual activity [2] 100% | residual activity [3] 90% | residual activity [4] 100% | residual activity [5] 93% | residual activity [6] 100% | residual activity [7] 81% | inhibition [8] 2.02% | residual activity [9] 100% | residual activity [10] 100% | residual activity [11] 100% | residual activity [12] 100% | residual activity [13] 100% | residual activity [14] 100% | residual activity [15] 100% | residual activity [16] 100% | residual activity [17] 100% | residual activity [18] 100% | residual activity [19] 100% | residual activity [20] 100% | residual activity [21] 100% | residual activity [22] 100% | residual activity [23] 99% | inhibition [24] 1.56% | residual activity [25] 71% | residual activity [26] 100% | residual activity [27] 100% | residual activity [28] 100% | residual activity [29] 100% | residual activity [30] 96% | residual activity [31] 100% | residual activity [32] 100% | residual activity [33] 94% | residual activity [34] 100% | residual activity [35] 97% | residual activity [36] 100% | residual activity [37] 87% | residual activity [38] 100% | residual activity [39] 100% | residual activity [40] 100% | residual activity [41] 94% | residual activity [42] 100% | residual activity [43] 100% | residual activity [44] 100%

CC(C)(O)c1cncc(-c2nc3ccc(F)cc3n2C2CC2)c1 [MSD-CYP11B2]
inactive: residual activity [1] 100% | residual activity [2] 100% | residual activity [3] 90% | residual activity [4] 100% | residual activity [5] 93% | residual activity [6] 100% | residual activity [7] 89% | inhibition [8] 16.6% | residual activity [9] 100% | residual activity [10] 100% | residual activity [11] 100% | residual activity [12] 100% | residual activity [13] 100% | residual activity [14] 100% | residual activity [15] 100% | residual activity [16] 100% | residual activity [17] 100% | residual activity [18] 94% | residual activity [19] 100% | residual activity [20] 100% | residual activity [21] 100% | residual activity [22] 100% | residual activity [23] 99% | inhibition [24] 2.65% | residual activity [25] 69% | residual activity [26] 100% | residual activity [27] 100% | residual activity [28] 100% | residual activity [29] 100% | residual activity [30] 100% | residual activity [31] 100% | residual activity [32] 100% | residual activity [33] 100% | residual activity [34] 77% | residual activity [35] 100% | residual activity [36] 100% | residual activity [37] 90% | residual activity [38] 100% | residual activity [39] 100% | residual activity [40] 84% | residual activity [41] 100% | residual activity [42] 99% | residual activity [43] 100% | residual activity [44] 100%
